# “Also recorded” adds a separate entry of the source.
# Key:
# [1] = system: Otsuka Long-Evans Tokushima Fatty (OLETF) rat; experiment: Urinalysis (urine volume, total protein, creatinine, 3-methylhistidine); format: in vivo
# Protocol: (§1) Body Mass (BM), Water, and Food Intake—BM was measured daily to calculate the appropriate drug and vehicle dose. Water, urine and food were measured once every 24 hours throughout the study.
# Urinalysis—Urine was collected and thawed on ice to measure 3-methylhistidine (3MH; Abbexa; 257295) and creatinine (Invitrogen; EIACUN). Excretion was calculated for both by multiplying the 24-hr urine volume by the measured concentration (U×V=V*[x]), where x=creatinine or 3MH.
# [2] = system: endocannabinoid receptors; settings: cited from earlier work
# [3] = system: Otsuka Long-Evans Tokushima Fatty (OLETF) rat; experiment: Liver triglyceride content; format: in vivo; settings: p<0.05
# Collagen Type IV = experiment: Liver Type IV collagen deposition (liver damage); format: in vivo, rat; settings: collagen 71% higher in OLETF than LETO
# Text: Type IV collagen deposition is an indicator of liver fibrosis, which is useful in the diagnosis of NAFLD in elderly individuals and models of NAFLD like OLETF.
# [4] = system: Otsuka Long-Evans Tokushima Fatty (OLETF) rat; experiment: Systolic blood pressure by DSI radiotelemetry; format: in vivo; settings: for Average increase of systolic blood pressure versus non-treated OLETF: after the 7th day of the dose regimen
# Protocol: (§2) Telemeter Implantation—At 16 weeks, OLETF rats (n=5) were implanted with DSI telemeters (HD-S10) in the abdominal cavity to measure systolic blood pressure. […] Activity was measured every hour for 15 minutes for the duration of the study. Data were analyzed using A.R.T. software (DSI, St. Paul, MN).
# lipase activity = experiment: Lipase activity assay (adipose, liver, plasma); format: in vivo, rat
# Protocol: Lipase Activity Assay—White adipose tissue (WAT) and liver was assayed for lipase activity.
# [5] = system: proteins involved in fatty acid uptake, metabolism and storage (liver); experiment: Western blot of liver proteins involved in fatty acid uptake, metabolism and storage; format: in vivo, rat
# Text: (§3) Western Blot—Liver was used to measure proteins involved in fatty acid uptake, metabolism and storage. Densitometry values were quantified using ImageJ software (NIH) and normalized by correcting for densitometry values of representative protein bands below 37 kDa stained with Ponceau S. Results are reported as expression (%) compared to LETO.
# [6] = system: proteins involved in insulin signaling (soleus); experiment: Western blot of soleus insulin signaling proteins; format: in vivo, rat
# Text: as §3, with “Blot—Soleus” for “Blot—Liver”, “insulin signaling.” for “fatty acid uptake, metabolism and storage.”
# [7] = system: Otsuka Long-Evans Tokushima Fatty (OLETF) rat; experiment: Morphometrical measurements (body mass, abdominal fat, food and water intake, activity) in advanced MetS rats; format: in vivo
# Text: Animals—The Otsuka Long-Evans Tokushima Fatty (OLETF) rat is a monogenic model of diet-induced obesity accelerated by a mutation in the CCK receptor. […] At >40 weeks of age, OLETF rats suffer from severe metabolic dysfunction and therefore serve as a model of aged, severe MetS.
# (§4) Male lean Long Evan's Tokushima Otsuka (LETO) rats and obese Otsuka Long Evans Tokushima Fatty (OLETF) rats (Japan SLC Inc., Hamamatsu, Japan), both 14 weeks of age were assigned to the following groups (n=8/group): (1) vehicle-dosed LETO (LETO), (2) vehicle-dosed OLETF (OLETF), and (3) H4CBD-treated (200 mg/kg/day×4 weeks) OLETF (H4CBD). Rats were maintained in a specific pathogen-free, climate-controlled facility on a 12-hour light: dark cycle (07:00-19:00 and 19:00-07:00, respectively). All animals had free access to water and were fed rat chow (Teklad Global; fat 9.0%; carbohydrate 44.9%; protein 19.0%) ad libitum. Treatment intervention was initiated at 41 weeks of age. Phenotypic data (i.e. body mass, food intake) was collected daily for all animals.
# Purified H4CBD (>99%) was suspended in food grade sesame oil and administered by oral gavage at a dose of 200 mg/kg.
# Tissue Collection—After the 4-week study and 3 days following the OGTT, animals were fasted overnight and tissues were collected the following morning.
# as §4, with “Animals—Male” for “Male”, “facility at the University of California, Merced” for “facility”, “age.” for “age. Phenotypic data (i.e. body mass, food intake) was collected daily for all animals.”
# as §1, §2
# Drug Preparation and Administration—Purified H4CBD (>99%) was suspended in sesame oil and administered by oral gavage at a dose of 200 mg/kg.
# Tissue Collection—After the 4-week study period, animals were fasted overnight, and tissues were collected at sacrifice the following morning. BM was recorded before animals were decapitated and trunk blood was collected.
# [8] = OLETF rats, 200 mg/kg oral, 4 weeks, p<0.05
# [9] = average between day 10 and day 30
# [10] = by day 13 through the end of the study
structure (smiles),measurement,setting,value
"CCCCCc1cc(O)c(C2CC(C)CCC2C(C)C)c(O)c1 (centres unmarked) [H4CBD, 2-(2-isopropyl-5-methylcyclohexyl)-5-pentylbenzene-1,3-diol]","Urine excretion compared to vehicle control, first week",[1]; 24-hour urine,reduced
same,"Urine excretion volume compared to OLETF control, remainder of study","[1]; 24-hour urine, persisted through the remainder of the study",increased above OLETF control by Day 11
same,Increase of 3MH excretion pre- vs. post-treatment,[1]; Day 0 vs Day 28,9%
same,3MH excretion less than OLETF control,[1]; after 4 weeks,17%
same,Reduction of creatinine excretion compared to OLETF control,[1]; after 4 weeks,42%
same,Increase of creatinine excretion within H4CBD-treated group,"[1]; after 4 weeks of treatment vs Day 0, non-significant",10%
same,3MH/Cr higher than OLETF control,"[1]; post-treatment (Day 28), p=0.07",77%
same,Reduction of proteinuria compared to OLETF control,[1]; total urinary protein excretion after 4 weeks,25%
same,Increase of 3MH/Cr after 4 weeks,"[1]; within H4CBD treated OLETF, muscle wasting index",4%
same,Affinity for the endocannabinoid receptors responsible for cannabis intoxication,[2],little affinity
same,Reduction of liver triglyceride content,[3],28%
same,Liver collagen (Type IV) deposition,Collagen Type IV,no effect on collagen levels
same,"Systolic blood pressure, treated vs non-treated OLETF",[4]; 4 weeks telemetry,No significant difference; also recorded: did not reduce SBP
same,Average increase of systolic blood pressure versus non-treated OLETF,[4],4%
same,Average increase of systolic blood pressure versus non-treated OLETF,"[4]; H4CBD n=3, OLETF n=2",6.5 mmHg
same,"Liver lipase activity (cytosolic, membrane)","lipase activity; LETO, OLETF, H4CBD",not different among groups
same,Fasted plasma lipase activity,lipase activity; data not shown,not significantly different among groups
same,Increase of adipose lipase activity compared to OLETF control,"lipase activity; white adipose tissue, tended, p=0.094",22%
same,"Downstream signaling proteins GPAM, DGAT1, CPTIA, ACOX1, ApoB and PRDX6",[5]; data not shown,comparable between groups
same,FATP5 expression,[5]; increased 109% in OLETF vs LETO,not effected
same,Increase of FATP2 expression,[5]; p<0.05,60%
same,Rescue (increase) of CD36 expression,[5]; p<0.05,48%
same,Translocated (membrane) GLUT4,[6]; membrane fraction of skeletal muscle,no changes
same,AMPK expression,[6]; soleus,No changes were detected
same,Ratio of membrane to cytosolic GLUT4,[6]; soleus,unchanged among the groups
same,Reduction of PI3K expression compared to OLETF,[6]; soleus,47%
same,pAMPK expression,[6]; soleus,No changes were detected
same,pAMPK/AMPK expression,[6]; soleus,No changes were detected
same,pIR/IR,[6]; soleus,not changed
same,Phosphorylation of the insulin receptor (pIR),[6]; soleus protein expression,No changes were detected
same,Reduction of Akt expression compared to OLETF,"[6]; soleus, cytosolic, p<0.05",32%
same,Reduction of pAkt expression compared to OLETF,"[6]; soleus, cytosolic, p<0.05",58%
same,Reduction of pAkt:Akt ratio compared to OLETF,"[6]; soleus, p<0.01",35%
same,Increase of native insulin receptor (IR) expression over OLETF,"[6]; soleus, p<0.05",54%
same,Cytosolic GLUT4 higher than OLETF,"[6]; soleus, tended, p=0.06",58%
same,Activity score relative to OLETF control,"[7]; DSI HD-S10 telemeter, H4CBD n=3, OLETF n=2, p=0.0985, not significant",nearly doubled
same,Body mass (g),"[7]; H4CBD-treated OLETF rats, 200 mg/kg oral gavage, 4 weeks, mean ± SEM, n = 8",516 ± 21^^# g
same,"Final, absolute food intake","[7]; H4CBD-treated OLETF rats, 200 mg/kg oral, 4 weeks, average of 3 days, mean ± SEM",36 ± 2 g
same,Relative total fat (g/100 g BM),"[7]; H4CBD-treated OLETF rats, 200 mg/kg oral, 4 weeks, epi.+retro., mean ± SEM",7.8 ± 1.1 g/100 g BM
same,Relative epi. fat (g/100 g BM),"[7]; H4CBD-treated OLETF rats, 200 mg/kg oral, 4 weeks, epidydimal, mean ± SEM",1.2 ± 0.1^^# g/100 g BM
same,Relative final food intake (g/100 g BM),"[7]; H4CBD-treated OLETF rats, 200 mg/kg oral, 4 weeks, mean ± SEM",6.7 ± 0.4 g/100 g BM
same,Relative retro. fat (g/100 g BM),"[7]; H4CBD-treated OLETF rats, 200 mg/kg oral, 4 weeks, retroperitoneal, mean ± SEM",6.6 ± 0.9 g/100 g BM
same,"Initial, absolute food inake","[7]; H4CBD-treated OLETF rats, average of 3 days, mean ± SEM",34 ± 2 g
same,Reduction of relative combined (total) adipose compared to OLETF,"[7]; OLETF rats, 200 mg/kg oral, 4 weeks",25%
same,Change in food consumption compared to OLETF,"[7]; OLETF rats, 200 mg/kg oral, 4 weeks (Table 1)",not associated with a change in food consumption
same,Effect on body mass (BM),"[7]; OLETF rats, 200 mg/kg oral, 4 weeks, compared with vehicle LETO, 200 mg/kg",reduced BM in OLETF to LETO levels within the first week; also recorded: reduced BM to vehicle-treated LETO levels
same,Reduction of relative epidydimal fat compared to OLETF control,[7]; [8],35%
same,Reduction of relative retroperitoneal fat compared to OLETF control,[7]; [8],24%
same,BM of vehicle-treated OLETF higher than H4CBD-treated OLETF,"[7]; OLETF rats, 200 mg/kg oral, after first week (day 10-30), p<0.05",15%
same,Increased relative food consumption compared to OLETF control,[7]; [9],24%
same,Increased relative food intake consumption compared to LETO,[7]; [9],74%
same,Water intake higher than LETO,[7]; [10],> 600%
same,Water intake higher than OLETF control,[7]; [10],90%

# Source: patent US20260248820A1, “USES OF HYDROGENATED CANNABIDIOL (H4CBD) AND ADVANCED METABOLIC SYNDROME” (The Regents of the University of California, priority 2022, published 2026)
